The results in this text go back to patent publication US7368575B2, “6-alkylamino-2,2′-disubstituted-7,8-disubstituted-2H-1-benzopyran derivatives as 5-lipoxygenase inhibitor” (Korea Research Institute of Chemical Technology, priority 2004, dated 2008).

The target of one experiment is T1, 5-LO (5-lipoxygenase) (Homo sapiens, UniProt P09917).
T1 construct: made in house; host or cells: insect cells (lysate, 7 μg)
T1 sequence (P09917 1-674): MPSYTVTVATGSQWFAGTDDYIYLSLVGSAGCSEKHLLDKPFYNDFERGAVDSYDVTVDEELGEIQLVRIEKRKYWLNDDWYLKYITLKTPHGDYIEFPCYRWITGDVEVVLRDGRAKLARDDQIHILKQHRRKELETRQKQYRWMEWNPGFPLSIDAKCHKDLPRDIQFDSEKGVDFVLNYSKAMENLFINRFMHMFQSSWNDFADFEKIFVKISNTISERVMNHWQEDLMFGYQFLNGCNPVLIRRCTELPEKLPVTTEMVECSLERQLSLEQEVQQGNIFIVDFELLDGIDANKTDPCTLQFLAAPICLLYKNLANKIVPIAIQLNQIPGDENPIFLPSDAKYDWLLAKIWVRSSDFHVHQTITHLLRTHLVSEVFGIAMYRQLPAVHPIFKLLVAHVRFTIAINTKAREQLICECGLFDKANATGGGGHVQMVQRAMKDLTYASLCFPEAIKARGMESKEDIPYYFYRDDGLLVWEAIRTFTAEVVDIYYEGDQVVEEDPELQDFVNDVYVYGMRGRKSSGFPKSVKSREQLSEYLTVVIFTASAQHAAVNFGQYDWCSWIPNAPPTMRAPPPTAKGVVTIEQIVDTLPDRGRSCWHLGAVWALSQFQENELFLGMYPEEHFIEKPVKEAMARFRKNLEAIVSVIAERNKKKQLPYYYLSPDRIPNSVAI
Nature of the experiment: 5-LO enzyme assay using a FOX reagent. It counts as biochemical. The conditions noted are these: read-out: 5-LO (% inhibition at 1 μM); test sample 1 μM; lysates from 5-LO expressing insect cells; table does not say FOX or 234 nm readout. Here is the method: Each test sample was added to lysates (7 μg) obtained from 5-LO expressing insect cells at a final concentration of 1 μM and reacted at room temperature for 3 min. Arachidonic acid as an enzyme substrate (40 μM) was added thereto and further reacted at room temperature for 4 min. Then, a FOX reagent (sulfuric acid 25 mM, xylenol orange 100 μM, FeSO4 100 μM; methanol: water=9:1) 100 μl was added thereto, and the absorbance of the reaction mixture was measured at 575 nm after 5 min.

Experiment [1] has as its system arachidonic acid-induced ear inflammation (mouse ear edema model). In words: Mouse ear edema model (arachidonic acid-induced; ear thickness and MPO activity). In kind it is in vivo. The settings on record: ICR mouse, oral, 1 hr before arachidonic acid treatment, versus arachidonic acid-only control. On the procedure:
The inside of the right ear of ICR mouse (6 week old) was treated with 2 mg of arachidonic acid dissolved in 20 μl of acetone for 1 hr to induce an inflammation.
After 1 hr, the difference between the right ear treated with arachidonic acid and the nontreated left ear was measured with a microgauge. Further, to measure the amount of neutrophil penetrated into a tissue as a primary marker for inflammation induction, the myeloperoxidase (MPO) activity was measured. In particular, the tissue obtained from the arachidonic acid-treated right ear was homogenized in 50 mM phosphate buffer solution (pH 6.0) supplemented with 0.5% hexadecyltrimethylammonium bromide (HTAB), subjected to centrifugation, and then, the MPO activity of the supernatant was measured.
To measure in vivo activity of each test compound, each compound was dissolved in 0.5% methylcellulose (10 mL/kg) and orally administered to the mice 1 hr before the arachidonic acid treatment. After the arachidonic acid was treated for 1 hr, the ear thickness and MPO activity were measured, and in vivo activity of the test compound was estimated by comparing them with those of a control which was treated with arachidonic acid only without the test compoud.

Take `COc1ccc(CCC2(C)C=Cc3cc(NCc4ccccc4)ccc3O2)cc1` (stereo not shown) [1-161]: the inhibition at 1 µM on 5-LO (5-lipoxygenase) was determined as 72%.

Take `CCCC1(C)C=Cc2cc(NCc3ccccc3)ccc2O1` (stereo not shown) [1-81]: on 5-LO (5-lipoxygenase), the inhibition at 1 µM was determined as 61%.

In the case of `CC(c1cc2ccccc2s1)N(O)C(N)=O` (stereo not shown) [Zileuton, reference compound], in experiment [1] (ear thickness), the “Animal model (% inhibition) Thickness (T) %” value is 67%. In experiment [1] (myeloperoxidase activity of ear tissue), the “Animal model (% inhibition) MPO %” value is recorded as 38%. Moreover, the inhibition at 1 µM on 5-LO (5-lipoxygenase) was found to be 85%.

Take `COc1ccc(CNc2cc3c(cc2C)OC(C)(CCc2ccccc2)C=C3)cc1` (stereo not shown) [1-324]: the inhibition at 1 µM on 5-LO (5-lipoxygenase) came to 51%.

Consider `COc1ccc(CNc2ccc3c(c2)C=CC(C)(CCc2ccccc2)O3)cc1` (stereo not shown) [1-124], for which, at 5-LO (5-lipoxygenase), the inhibition at 1 µM turned out to be 84%.

As a reminder, the inhibition is the share of the control response that was lost under treatment.
